# What was measured:
# Type in all cases: cell-based
# [1] = test system: BeWo (choriocarcinoma) cells; test: MTT cancer cell viability assay, BeWo; settings: Homo sapiens, 48 h
# Description: (§1) A possible therapeutic application of GLUT3 inhibitors is in oncology, especially for cancers in which GLUT3 is a poor prognosis marker. We tested the effect of GLUT3 inhibitors on the cell viability of several different cancer lines: myeloid leukemia (HL60 and U937), lung cancer (A549), colorectal adenocarcinoma (Caco-2), breast cancer (MCF7), hepatocellular carcinoma (HepG2), and choriocarcinoma (BeWo) cells. GLUT3 inhibitors, at five different concentrations, ranging from 2 to 100 µM, were incubated with cancer cells for 48 h. Then, cell viability was assessed with the MTT assay. […] G3iC and G3iD also affected the leukemia cell lines but at double the concentrations of G3iB and G3iE. […] G3iB had some cytotoxic activity (CC50 < 50 µM) against the highest number of cancer cell lines (HL60, U937, A549, HepG2, and MCF7).
# (§2) Cancer cell viability in the presence of GLUT3 inhibitors was assayed using the MTT Cell Viability Kit (Biotium Inc, Freemont, CA) according to manufacturer’s instructions. Cancer cells were grown in the corresponding medium, at 37 °C and 5% CO2 in a humidified incubator. The media (Gibco) for leukemia cells (HL60 and U937), A549, MCF7, BeWo, and HepG2 cells were RPMI 1640, Ham’s F-12K, DMEM:F-12, Ham’s F-12K, and EMEM, respectively, all supplemented with 10% (v/v) fetal bovine serum (HyClone). Caco-2 cells were grown in EMEM supplemented with 20% (v/v) fetal bovine serum. Cells were detached from the culture flasks with Accutase (Innovative Cell Technologies, Inc., San Diego, CA) according to manufacturer’s instructions. Cells were seeded in 96-well plates, at a density of ~ 30,000 cells/well (in 100 µl fresh media) and incubated with varying concentrations of GLUT3 inhibitors for 48 h, at 37 °C and 5% CO2 in a humidified incubator. The inhibitors were dissolved in DMSO, at 100× the final concentration, so that 1 µl of the stock inhibitor concentration was added per well, making the final DMSO concentration 1% (v/v). Therefore, controls for 100% cell viability were cells with 1% (v/v) DMSO without the inhibitors. Controls for 0% cell viability were cells treated with 0.3% (v/v) Tween 20. For MTT assay, 10 µl of MTT reagent was added in each well followed by 3–4 h incubation at 37 °C and 5% CO2 in a humidified incubator. After thoroughly mixing in 200 µl DMSO in each well, the plates were put into a plate reader (BioTek Synergy H1), and the absorbances at 570 nm and 630 nm were measured with Gen5 program (BioTek Inc.). The experimental values represent Abs570 nm-Abs630 nm with each inhibitor condition and control being the average of three wells.
# (§3) Supplementary Figure S8. Effect of GLUT3 inhibitors on the viability of various cancer cell lines. Cell viability was determined by MTT assay in A549 (lung cancer), BeWo (choriocarcinoma), Caco-2 (colon cancer), HepG2 (liver cancer), HL-60 (leukemia), MCF7 (breast cancer), and U937 (histiocytic lymphoma) cell lines. GLUT3 inhibitors at concentrations of 2, 5, 10, 20, 50, and 100 µM were incubated with cells in 96-well plates for 48 hours before the addition of the MTT reagent.
# [2] = test system: HepG2 (liver cancer) cells; test: MTT cancer cell viability assay, HepG2; settings: HepG2, 48 h
# Description: as §1, §2, §3
# [3] = test system: MCF7 (breast cancer) cells; test: MTT cancer cell viability assay, MCF7; settings: MCF7, 48 h
# Description: as §1, §2, §3
Structure (SMILES),CC50 [1],CC50 [2],CC50 ([2]; Homo sapiens),CC50 ([3]; Homo sapiens),CC50 [3]
"COc1ccccc1-n1c(/C=C/c2ccc(O)cc2)nc2ccc(Br)cc2c1=O [G3iB, 6-bromo-2-[(E)-2-(4-hydroxyphenyl)ethenyl]-3-(2-methoxyphenyl)quinazolin-4(3H)-one]",> 50 µM,39.3 ± 4 µM,< 50 µM,< 50 µM,42.6 ± 4.2 µM
Cc1cc(NC(=O)CCC2Cc3ccccc3NC2=O)nc(-c2ccccc2)n1 (centres unmarked) [G3iD],> 100 µM,–,> 100 µM,> 50 µM,–
"O=C(Nc1cccc(Cl)c1)c1cccc(NC(=O)c2cccc([N+](=O)[O-])c2)c1 [G3iE, N-{3-[(3-chloroanilino)carbonyl]phenyl}-3-nitrobenzamide]",> 50 µM,–,> 100 µM,> 100 µM,–
Cc1ccccc1CN(Cc1nnc(C(C)(C)C)o1)c1ccc2nc(O)[nH]c2c1 [G3iF],~100 µM,–,> 100 µM,> 100 µM,–
Cc1cccnc1OC1CCN(c2cc(N3CCCC3CO)ncn2)CC1 (centres unmarked) [G3iC],> 100 µM,–,> 100 µM,> 50 µM,–
"CC(=O)Nc1ccc(S(=O)(=O)Nc2ccc(Nc3cc(N(C)C)nc(C)n3)cc2)cc1 [G3iA, N-(4-{[(4-{[6-(dimethylamino)-2-methylpyrimidin-4-yl]amino}phenyl)amino]sulfonyl}phenyl)acetamide]",> 100 µM,–,> 100 µM,> 100 µM,–
